The test system of assay [1] is BICR10 (Oral Cavity Carcinoma). Description: Bliss excess, mean over the matrix (fraction); higher = more synergy. Put shortly: (§1)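 Cell lines grown in DMEM/F12 or RPMI with 10% FBS were plated in 1536-well plates and held 24 hours at 37°C, 5% CO2 before 72 hours of exposure to two-drug dose matrices, with DMSO typically at 0.2%. CellTiter-Glo 2.0 luminescence gave viability, which was converted to inhibition. Vehicle wells were set to 0 and blank wells to 1. Combination Emax is the second-highest inhibition in the matrix, and Bliss excess is the observed combination effect minus the expected EA + EB − EA·EB, where EA and EB are the single-agent effects.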

Assay [2] concerns ESO51 (Esophageal Adenocarcinoma). The assay is described as above. The method, boiled down:
as §1

The subject of the next assay is G-361 (Melanoma). The description is as above. The method, boiled down:
as §1

Assay [3] concerns OCI-AML3 (Acute Myeloid Leukemia). The assay is described as above. The method, boiled down:
as §1

In assay [4] the test system is BICR10 (Oral Cavity Carcinoma). Description: combination Emax (second highest fraction inhibited in the dose matrix, 72 h); higher = more inhibition; extreme values may be limits of the assay. The method, boiled down: as §1
Assay [5] has as its system OCI-AML3 (Acute Myeloid Leukemia). The description is as above. The method, boiled down:
as §1

Each structure is given as a SMILES string.
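Wherever Bliss excess, mean over the matrix is given: after 72 h of two-drug dosing.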

With `CN(C)CCCOc1ccc(-c2ccc3ncc4c(c3c2)n(C2CCOCC2)c(=O)n4C)cn1` [AZD0156] + O=C(c1cc(Cc2n[nH]c(=O)c3ccccc23)ccc1F)N1CCN(C(=O)C2CC2)CC1 [Olaparib] (first compound max 3 µM, partner max 3 µM), the Bliss excess is 0.0275 in assay [1], 0.0292 in assay [2], 0.0857 with G-361 (Melanoma) and 0.128 in assay [3]. For the same compound, the “combination Emax” value in assay [4] was found to be 0.348; in assay [5], 0.392.
Consider `C=CCn1c(=O)c2cnc(Nc3ccc(N4CCN(C)CC4)cc3)nc2n1-c1cccc(C(C)(C)O)n1` [AZD1775] + C1CN(CCC1(C(=O)N[C@@H](CCO)C2=CC=C(C=C2)Cl)N)C3=NC=NC4=C3C=CN4 [Capivasertib] (first compound max 3 µM, partner max 3 µM), for which the Bliss excess is -0.0418 in assay [1], -0.004 in assay [2], -0.0042 in the assay on G-361 (Melanoma) and 0.0051 in assay [3]. The “combination Emax” value in assay [4] came to 0.829; in assay [5], 0.914.
`COc1nnc2ccc(N3CCC(c4ccc(OCCN5CCN(C)C(=O)[C@H]5C)cc4)CC3)nn12` [AZD5153] + C=CCn1c(=O)c2cnc(Nc3ccc(N4CCN(C)CC4)cc3)nc2n1-c1cccc(C(C)(C)O)n1 [AZD1775] (first compound max 1 µM, partner max 1 µM): the Bliss excess in assay [2] is -0.0594; in the assay with G-361 (Melanoma), -0.0271; in assay [3] it was -0.012. Also, the “combination Emax” value in assay [5] amounted to 1.
As for `NC1(C(=O)N[C@@H](CCO)c2ccc(Cl)cc2)CCN(c2ncnc3[nH]ccc23)CC1` [Capivasertib] + C[C@@H]1COCCN1C2=NC(=NC(=C2)C3(CC3)[S@](=N)(=O)C)C4=C5C=CNC5=NC=C4 [AZD6738] (first compound max 10 µM, 7x7, partner max 10 µM), the Bliss excess was -0.0208 in assay [2], -0.0397 with G-361 (Melanoma) and -0.0224 in assay [3]. In addition, the “combination Emax” value in assay [5] turned out to be 0.891.
